Test system: irg-1
Test: Pirg-1GFP translation suppression reporter in worms
Assay type: in vivo, C. elegans
Conditions: 3-hour treatment, 2 mg/ml
Excerpt: DIC microscopy was used to perform all the nucleolar imaging. Hypodermal cells of age-matched day 1 adults were imaged using 100× magnification with Olympus IX81. Freehand tool software from Fiji was used for nucleolar area quantification. FIB-1::GFP, HLH-30::GFP and N2+Pirg-1GFP worms were imaged using Olympus IX81 and Axio Imager Z1(Zeiss).

## C[C@@H]1C[C@@H]([C@H](O)CC2CC(=O)NC(=O)C2)C(=O)[C@@H](C)C1 [cycloheximide]
  Pirg-1GFP reporter induction: induced
Listed as Cyclohexamide
  Pirg-1GFP reporter induction: strongly induced

— patent US11573231B2, “Biomarker of aging” (Max-Planck-Gesellschaft zur Forderung der Wissenschaften …, priority 2017, dated 2023)
